Converted amounts (≈) assume the structure as drawn. The source made the active and inactive calls. The calls are words filed in the database; no cut-off is given here.
Experiments:
Staphylococcus aureus [1] = experiment: Bactericidal activity against methicillin-resistant Staphylococcus aureus CC398 assessed as reduction in bacterial viability measured after 15 hrs by real-time microscopic analysis; format: functional
Staphylococcus aureus [2] = experiment: Antibacterial activity against methicillin-resistant Staphylococcus aureus CC398 assessed as reduction in bacterial growth measured after 4 hrs by real-time microscopic analysis; format: functional
[3] = Selectivity ratio of MBC for bactericidal activity against methicillin-resistant Staphylococcus aureus CC398 to MIC for antibacterial activity against methicillin-resistant Staphylococcus aureus CC398; format: functional
Staphylococcus aureus [4] = experiment: Potentiation of methicillin-induced antibacterial activity against methicillin-resistant Staphylococcus aureus CC398 assessed as ratio of methicillin MBC to MIC at 2.5 microg/ml; format: functional; conditions: dose 2.5 µg/ml
Staphylococcus aureus [5] = experiment: Potentiation of methicillin-induced antibacterial activity against methicillin-resistant Staphylococcus aureus CC398 assessed as methicillin MIC at 2.5 microg/ml; format: functional; conditions: dose 2.5 µg/ml
Staphylococcus aureus [6] = experiment: Potentiation of methicillin-induced antibacterial activity against methicillin-resistant Staphylococcus aureus CC398 assessed as methicillin MBC at 2.5 microg/ml; format: functional; conditions: dose 2.5 µg/ml
Staphylococcus aureus [7] = experiment: Potentiation of methicillin-induced antibacterial activity against methicillin-resistant Staphylococcus aureus CC398 assessed as reduction in methicillin MIC at 2.5 microg/ml relative to control; format: functional; parameters: scale not given: the % may be the effect or the level left; conditions: dose 2.5 µg/ml
Staphylococcus aureus [8] = experiment: Antibacterial activity against methicillin-resistant Staphylococcus aureus CC398 assessed as increase in cell density at 2.5 microg/ml measured after 15 hrs by real-time microscopic analysis relative to control; format: functional; conditions: dose 2.5 µg/ml
Staphylococcus aureus [9] = experiment: Upregulation of PBP2 protein expression in methicilin-resistant Staphylococcus aureus CC398 in the presence of methicillin by gene ontology analysis; format: functional
Staphylococcus aureus [10] = experiment: Upregulation of ATP synthase subunit beta expression in methicillin-resistant Staphylococcus aureus CC398 in the presence of methicillin by gene ontology analysis; format: functional
Staphylococcus aureus [11] = experiment: Downregulation of phosphoglycerate kinase expression in methicillin-resistant Staphylococcus aureus CC398 in the presence of methicillin by gene ontology analysis; format: functional
Staphylococcus aureus [12] = experiment: Upregulation of GrpE protein expression in methicillin-resistant Staphylococcus aureus CC398 in the presence of methicillin by gene ontology analysis; format: functional
Staphylococcus aureus [13] = experiment: Downregulation of aminoacyl-tRNA-synthetase expression in methicillin-resistant Staphylococcus aureus CC398 in the presence of methicillin by gene ontology analysis; format: functional
Staphylococcus aureus [14] = experiment: Downregulation of Threonine synthase expression in methicillin-resistant Staphylococcus aureus CC398 in the presence of methicillin by gene ontology analysis; format: functional
Staphylococcus aureus [15] = experiment: Downregulation of cysteine synthase expression in methicillin-resistant Staphylococcus aureus CC398 in the presence of methicillin by gene ontology analysis; format: functional
Staphylococcus aureus [16] = experiment: Downregulation of serine hydroxy methyltransferase expression in methicillin-resistant Staphylococcus aureus CC398 in the presence of methicillin by gene ontology analysis; format: functional
Staphylococcus aureus [17] = experiment: Downregulation of Carbamoyl-phosphate synthase small chain expression in methicillin-resistant Staphylococcus aureus CC398 in the presence of methicillin by gene ontology analysis; format: functional
Staphylococcus aureus [18] = experiment: Antibacterial activity against methicillin-resistant Staphylococcus aureus CC398 assessed as inhibition of bacterial growth at higher concentration incubated for 15 hrs by real-time microscopic analysis; format: functional, organism-based
Staphylococcus aureus [19] = experiment: Antibacterial activity against methicillin-resistant Staphylococcus aureus CC398 assessed as inhibition of bacterial growth at lower concentration incubated for 15 hrs by real-time microscopic analysis; format: functional, organism-based
Staphylococcus aureus [20] = experiment: Upregulation of ATP synthase subunit B expression in methicillin-resistant Staphylococcus aureus CC398 in the presence of methicillin by gene ontology analysis; format: functional
Staphylococcus aureus [21] = experiment: Upregulation of ATP synthase subunit alpha expression in methicillin-resistant Staphylococcus aureus CC398 in the presence of methicillin by gene ontology analysis; format: functional
Staphylococcus aureus [22] = experiment: Upregulation of ATP-dependent protease ATPase subunit […] expression in methicillin-resistant Staphylococcus aureus CC398 in the presence of methicillin by gene ontology analysis; format: functional
Staphylococcus aureus [23] = experiment: Downregulation of pyruvate kinase expression in methicillin-resistant Staphylococcus aureus CC398 in the presence of methicillin by gene ontology analysis; format: functional
Staphylococcus aureus [24] = experiment: Downregulation of superoxide dismutase expression in methicillin-resistant Staphylococcus aureus CC398 in the presence of methicillin by gene ontology analysis; format: functional
Staphylococcus aureus [25] = experiment: Upregulation of enolase expression in methicillin-resistant Staphylococcus aureus CC398 by gene ontology analysis; format: functional
Staphylococcus aureus [26] = experiment: Downregulation of catalase expression in methicillin-resistant Staphylococcus aureus CC398 in the presence of methicillin by gene ontology analysis; format: functional
Staphylococcus aureus [27] = experiment: Antibacterial activity against methicillin-resistant Staphylococcus aureus CC398 assessed as increase in cell density at 5 microg/ml measured after 15 hrs by real-time microscopic analysis relative to control; format: functional; conditions: dose 5 µg/ml
Staphylococcus aureus [28] = experiment: Downregulation of fructose-1,6-bisphosphate aldolase expression in methicillin-resistant Staphylococcus aureus CC398 in the presence of methicillin by gene ontology analysis; format: functional
Staphylococcus aureus [29] = experiment: Downregulation of 2,3-bisphosphoglycerate-independent phosphoglycerate mutase expression in methicillin-resistant Staphylococcus aureus CC398 in the presence of methicillin by gene ontology analysis; format: functional
Staphylococcus aureus [30] = experiment: Downregulation of elongation factor Tu expression in methicillin-resistant Staphylococcus aureus CC398 in the presence of methicillin by gene ontology analysis; format: functional
Staphylococcus aureus [31] = experiment: Downregulation of elongation factor G expression in methicillin-resistant Staphylococcus aureus CC398 in the presence of methicillin by gene ontology analysis; format: functional
Staphylococcus aureus [32] = experiment: Downregulation of arginine-tRNA-synthetase expression in methicillin-resistant Staphylococcus aureus CC398 in the presence of methicillin by gene ontology analysis; format: functional
Staphylococcus aureus [33] = experiment: Potentiation of methicillin-induced antibacterial activity against methicillin-resistant Staphylococcus aureus CC398 assessed as ratio of methicillin MBC to MIC at 7.5 microg/ml; format: functional; conditions: dose 7.5 µg/ml
Staphylococcus aureus [34] = experiment: Potentiation of methicillin-induced antibacterial activity against methicillin-resistant Staphylococcus aureus CC398 assessed as methicillin MIC at 7.5 microg/ml; format: functional; conditions: dose 7.5 µg/ml
Staphylococcus aureus [35] = experiment: Potentiation of methicillin-induced antibacterial activity against methicillin-resistant Staphylococcus aureus CC398 assessed as methicillin MBC at 7.5 microg/ml; format: functional; conditions: dose 7.5 µg/ml
Staphylococcus aureus [36] = experiment: Upregulation of DNA-directed RNA polymerase subunit omega expression in Staphylococcus aureus CC398 in the presence of methicillin by gene ontology analysis; format: functional
Staphylococcus aureus [37] = experiment: Upregulation of SepF expression in Staphylococcus aureus CC398 in the presence of methicillin by gene ontology analysis; format: functional
Staphylococcus aureus [38] = experiment: Downregulation of isoleucine-tRNA-synthetase expression in methicillin-resistant Staphylococcus aureus CC398 in the presence of methicillin by gene ontology analysis; format: functional
Staphylococcus aureus [39] = experiment: Downregulation of valine-tRNA-synthetase expression in methicillin-resistant Staphylococcus aureus CC398 in the presence of methicillin by gene ontology analysis; format: functional
Staphylococcus aureus [40] = experiment: Antibacterial activity against methicillin-resistant Staphylococcus aureus CC398 assessed as increase in cell density at 1.25 microg/ml by real-time microscopic analysis relative to control; format: functional; conditions: dose 1.25 µg/ml; time 15 hrs
Staphylococcus aureus [41] = experiment: Upregulation of GTP-binding protein typeA expression in methicillin-resistant Staphylococcus aureus CC398 in the presence of methicillin by gene ontology analysis; format: functional
Staphylococcus aureus [42] = experiment: Upregulation of proline-tRNA ligase expression in methicillin-resistant Staphylococcus aureus CC398 in the presence of methicillin by gene ontology analysis; format: functional
Staphylococcus aureus [43] = experiment: Upregulation of elongation factor P expression in methicillin-resistant Staphylococcus aureus CC398 in the presence of methicillin by gene ontology analysis; format: functional
Staphylococcus aureus [44] = experiment: Downregulation of isocitrate dehydrogenase expression in methicillin-resistant Staphylococcus aureus CC398 in the presence of methicillin by gene ontology analysis; format: functional
Staphylococcus aureus [45] = experiment: Downregulation of succinate-CoA synthase expression in methicillin-resistant Staphylococcus aureus CC398 in the presence of methicillin by gene ontology analysis; format: functional
Staphylococcus aureus [46] = experiment: Upregulation of peptide chain release factor 1 expression in methicillin-resistant Staphylococcus aureus CC398 in the presence of methicillin; format: functional
Staphylococcus aureus [47] = experiment: Antibacterial activity against methicillin-resistant Staphylococcus aureus CC398 assessed as increase in cell density at 1 microg/ml measured after 15 hrs by real-time microscopic analysis relative to control; format: functional; conditions: dose 1 µg/ml
Staphylococcus aureus [48] = experiment: Antibacterial activity against methicillin-resistant Staphylococcus aureus CC398 assessed as increase in cell growth rate by measuring maximal response at 1 microg/ml after 15 hrs by real-time microscopic analysis relative to control; format: functional; conditions: dose 1 µg/ml
Staphylococcus aureus [49] = experiment: Upregulation of ATP synthase subunit beta expression in Staphylococcus aureus CC398 by gene ontology analysis; format: functional
Staphylococcus aureus [50] = experiment: Upregulation of ATP synthase subunit b expression in Staphylococcus aureus CC398 by gene ontology analysis; format: functional
Staphylococcus aureus [51] = experiment: Upregulation of ATP synthase subunit alpha expression in Staphylococcus aureus CC398 by gene ontology analysis; format: functional
Staphylococcus aureus [52] = experiment: Upregulation of PBP2 protein expression in Staphylococcus aureus CC398 by gene ontology analysis; format: functional

| SMILES | MBC (Staphylococcus aureus [1]) | MIC (Staphylococcus aureus [2]) | Ratio [3] | Ratio (Staphylococcus aureus [4]) | MBC (Staphylococcus aureus [5]) | MIC (Staphylococcus aureus [6]) | Activity (Staphylococcus aureus [7]) | Activity (Staphylococcus aureus [10]) | Activity (Staphylococcus aureus [11]) | Activity (Staphylococcus aureus [12]) | Activity (Staphylococcus aureus [18]) | Activity (Staphylococcus aureus [19]) | Activity (Staphylococcus aureus [20]) | Activity (Staphylococcus aureus [21]) | Activity (Staphylococcus aureus [23]) | Activity (Staphylococcus aureus [24]) | Activity (Staphylococcus aureus [25]) | Activity (Staphylococcus aureus [26]) | other results |
| --- | --- | --- | --- | --- | --- | --- | --- | --- | --- | --- | --- | --- | --- | --- | --- | --- | --- | --- | --- |
| CCCCCc1cc(O)c2c(c1)OC(C)(C)c1ccc(C)cc1-2 [CANNABINOL] | 7.5 µg/mL (≈ 24.2 µM) | 2.5 µg/mL (≈ 8.05 µM) | 3 | 16 | 1 µg/mL | 0.063 µg/mL | 87.5% | Active | Active | Active | Active | inactive | Active | Active | Active | Active | Active | Active | Activity (Staphylococcus aureus [8]): 29%; Activity (Staphylococcus aureus [9]): Active; Activity (Staphylococcus aureus [13]): Active; Activity (Staphylococcus aureus [14]): Active; Activity (Staphylococcus aureus [15]): Active; Activity (Staphylococcus aureus [16]): Active; Activity (Staphylococcus aureus [17]): Active; Activity (Staphylococcus aureus [22]): Active |
| CCCCCc1cc(O)c2c(c1)OC(C)(C)[C@@H]1CCC(C)=C[C@@H]21 [DRONABINOL] | 20 µg/mL (≈ 63.6 µM) | 7.5 µg/mL (≈ 23.8 µM) | 2.67 |  |  |  | 93.8% | Active | Active | Active | Active | inactive | Active | Active | Active | Active | Active |  | Activity (Staphylococcus aureus [27]): 45%; Activity (Staphylococcus aureus [28]): Active; Activity (Staphylococcus aureus [29]): Active; Activity (Staphylococcus aureus [30]): Active; Activity (Staphylococcus aureus [31]): Active; Activity (Staphylococcus aureus [32]): Active; Ratio (Staphylococcus aureus [33]): 8; MIC (Staphylococcus aureus [34]): 0.063 µg/mL; MBC (Staphylococcus aureus [35]): 0.5 µg/mL; Activity (Staphylococcus aureus [36]): Active; Activity (Staphylococcus aureus [37]): Active; Activity (Staphylococcus aureus [38]): Active; Activity (Staphylococcus aureus [39]): Active |
| C=C(C)[C@@H]1CCC(C)=C[C@H]1c1c(O)cc(CCCCC)cc1O [CANNABIDIOL] | 5 µg/mL (≈ 15.9 µM) | 2.5 µg/mL (≈ 7.95 µM) | 2 | 16 | 1 µg/mL | 0.063 µg/mL | 87.5% | Active | Active |  | Active | inactive | Active | Active |  | Active | Active | Active | Activity (Staphylococcus aureus [40]): 19%; Activity (Staphylococcus aureus [41]): Active; Activity (Staphylococcus aureus [42]): Active; Activity (Staphylococcus aureus [43]): Active; Activity (Staphylococcus aureus [44]): Active; Activity (Staphylococcus aureus [45]): Active; Activity (Staphylococcus aureus [46]): Active |
| COc1cccc(OC)c1C(=O)N[C@@H]1C(=O)N2[C@@H]1SC(C)(C)[C@@H]2C(=O)O [METHICILLIN] | 8 µg/mL (≈ 21 µM) | 4 µg/mL (≈ 10.5 µM) |  |  |  |  |  |  |  |  |  |  |  |  |  |  |  |  | Activity (Staphylococcus aureus [47]): 43%; Activity (Staphylococcus aureus [48]): 143%; Activity (Staphylococcus aureus [49]): Active; Activity (Staphylococcus aureus [50]): Active; Activity (Staphylococcus aureus [51]): Active; Activity (Staphylococcus aureus [52]): Active |

— ChEMBL document CHEMBL5321264, “Proteomic Changes in Methicillin-Resistant Staphylococcus aureus Exposed to Cannabinoids” (2023)
